The subject of one assay is HSV-2. In words: Anti-HSV-2 activity (plaque-formation inhibition in human embryonic lung fibroblasts). It is filed as cell-based, herpes simplex virus 2 (HSV-2), MS strain. Particulars: Human alphaherpesvirus 2, Fibroblast, read-out: Antiviral Activity (ED50) HSV-2. How it is done: (§1) (1) Anti-HSV-1 Activity and Anti-HSV-2 Activity
(§2) 1. Fibroblasts derived from human embryonic lung tissue are subcultured in an Eagle's MEM supplemented with 10% of pseudo fetal calf serum (Mitsubishi Chemical Corp.), by passing at 1: (2-4) split every 4 or 5 days.
(§3) 2. A cell suspension obtained from the parent cells by passing at 1:2 split is seeded on a 12-well multiplate at a rate of 2 ml/well, and incubated in a CO2 -incubator at 37° C. for 4 days.
(§4) 3. The culture medium is discarded; a Hanks' MEM (250 microlitters) containing 50 to 150 PFU of the VR-3 strain of HSV-1 or the MS strain of HSV-2 is inoculated, thereby allowing the cells to adsorb the virus at 37° C. for 30 minutes; and then the virus liquid is discarded.
(§5) 4. A serum (2.5%)-added Eagle's MEM containing a test agent and 0.8% of methyl cellulose is added; and the resultant is incubated in a CO2 -incubator at 37° C. for 2 to 3 days. In general, the test agent is diluted serially by 1/2 log 10.
(§6) 5. The culture medium is discarded, and the resultant is dyed with a 0.5% solution of crystal violet; the number of plaques in each well is counted under a stereoscopic light microscope; and the rate of plaque-formation inhibition is obtained from the equation below.
(§7) 6. The rates of plaque-formation inhibition are plotted against the concentrations (in logarithm) of the test agent, and, from this dose--plaque-formation inhibition curve, 50% inhibitory concentration (ED50) of the test agent is obtained. [formula] (2) Anti-Varicella Zoster Virus (VZV) Activity

The test system of another assay is HSV-1. Put plainly: Anti-HSV-1 activity (plaque-formation inhibition in human embryonic lung fibroblasts). The conditions noted are these: Human alphaherpesvirus 1, Fibroblast, read-out: Antiviral Activity (ED50) HSV-1. It is filed as cell-based, herpes simplex virus 1 (HSV-1), VR-3 strain. How it is done: as §1, §2, §3, §4, §5, §6, §7
The next assay relates to HCMV. In words: Anti-Human Cytomegalovirus (HCMV) activity (plaque-formation inhibition in human embryonic lung fibroblasts). It is filed as cell-based. Particulars: Human betaherpesvirus 5, AD169, Fibroblast, HCMV AD-169 strain, 4 days plus further 4 to 5 days, 50% plaque-formation inhibition, read-out: Antiviral Activity (ED50) HCMV. On the procedure:
(3) Anti-Human Cytomegalovirus (HCMV) Activity
as §2
2. A cell suspension obtained from the parent cells by passing at 1:2 split is seeded on a 24-well multiplate at a rate of 0.8 ml/well, and incubated in a CO2 -incubator at 37° C. for 4 days.
3. The culture medium is discarded; and 400 microlitters of a serum (5%)-added Eagle's MEM containing 50 to 100 PFU of the AD-169 strain of HCMV is inoculated, thereby allowing the cells to adsorb the virus at 37° C. for 1 hour.
4. The same amount of an MEM containing a test agent is added without discarding the virus liquid, and the resultant is incubated in a CO2 -incubator at 37° C. for 4 days. In general, the test agent is diluted serially by 1/2 log 10.
5. The culture medium is replaced with a serum (2.5%)-added Eagle's MEM containing the test agent with the same concentration and 0.8% of methyl cellulose, and incubation is continued for a further 4 to 5 days.
6. The culture medium is discarded, and the resultant is dyed with May-Gruenwald's and Giemsa (×10) solutions; the number of plaques in each well is counted under a stereoscopic light microscope; and the rate of plaque-formation inhibition is obtained from the same equation as is used in the above (1).
7. The rates of plaque-formation inhibition are plotted against the concentrations (in logarithm) of the test agent, and, from this dose--plaque-formation inhibition curve, 50% inhibitory concentration (ED50) of the test agent is obtained.

Another assay deals with VZV. In words: microbe, parasite or virus in culture. It is filed as cell-based, varicella-zoster virus (VZV), Oka strain. Particulars: Human alphaherpesvirus 3, Fibroblast, read-out: Antiviral Activity (ED50) VZV.
Excerpt: as §7, §2, §3
3. The culture medium is discarded; and 750 microlitters of a serum (5%)-added Eagle's MEM containing 50 to 100 PFU of the Oka strain of VZV is inoculated, thereby allowing the cells to adsorb the virus at 37° C. for 1 hour.
4. The same amount of an MEM containing a test agent is added without discarding the virus liquid, and the resultant is incubated in a CO2 -incubator at 37° C. In general, the test agent is diluted serially by 1/2 log 10.
5. After 4-5 day incubation, the culture medium is discarded, and the resultant is dyed with a 0.5% solution of crystal violet; the number of plaques in each well is counted under a stereoscopic light microscope; and the rate of plaque-formation inhibition is obtained from the same equation as is used in the above (1).
6. The rates of plaque-formation inhibition are plotted against the concentrations (in logarithm) of the test agent, and, from this dose--plaque-formation inhibition curve, 50% inhibitory concentration (ED50) of the test agent is obtained.

Setting [1] is: HSV-2 MS strain, human embryonic lung fibroblasts, 2 to 3 days, 50% plaque-formation inhibition.
Setting [2] is: HSV-1 VR-3 strain, human embryonic lung fibroblasts, 2 to 3 days, 50% plaque-formation inhibition.

In brackets after ≈: the same amount, converted by molar mass. Where two headings read alike, the source gives them in different places.

`Nc1nc2c(ncn2COCCO)c(=O)[nH]1` [Control Example 2, acyclovir, reference compound]: the EC50 was found to be 0.23 µg/mL (≈ 1.02 µM) in the assay with HSV-2 (setting [1]), 0.14 µg/mL (≈ 0.622 µM) in the assay on HSV-1 (setting [2]) and 6.9 µg/mL in the assay with HCMV.
In the case of `Nc1ncnc2c1ncn2[C@@H]1O[C@H](CO)[C@@H](O)[C@@H]1O` [Control Example 1, araA, reference compound], the EC50 in the assay with VZV is 1.17 µg/mL (≈ 4.38 µM); in the assay on HSV-2, 6.6 µg/mL (≈ 24.7 µM); in the assay with HSV-1, 17.1 µg/mL (≈ 64 µM); in the assay on HCMV, 6.5 µg/mL.
`Nc1ncnc2c1ncn2[C@@H]1S[C@H](CO)[C@@H](O)[C@@H]1F` [Synthesis Example 1, 9-(2-deoxy-2-fluoro-4-thio-beta-D-arabinofuranosyl)adenine]: the EC50 in the assay with VZV is 3.04 µg/mL (≈ 10.7 µM); in the assay on HSV-2 (setting [1]), 3.07 µg/mL (≈ 10.8 µM); with HSV-1 (setting [2]) it was 1.61 µg/mL (≈ 5.64 µM); in the assay on HCMV, 1.41 µg/mL.
As to `Nc1nc2c(ncn2[C@@H]2S[C@H](CO)[C@@H](O)[C@@H]2F)c(=O)[nH]1` [Synthesis Example 3, 9-(2-deoxy-2-fluoro-4-thio-beta-D-arabinofuranosyl)guanine], the EC50 turned out to be 0.095 µg/mL (≈ 0.315 µM) in the assay on VZV, 0.063 µg/mL (≈ 0.209 µM) in the assay on HSV-2 (setting [1]), 0.0091 µg/mL (≈ 0.0302 µM) with HSV-1 (setting [2]) and 0.078 µg/mL in the assay with HCMV.
As for `Nc1nc(N)c2ncn([C@@H]3S[C@H](CO)[C@@H](O)[C@@H]3F)c2n1` [Synthesis Example 2, 9-(2-deoxy-2-fluoro-4-thio-beta-D-arabinofuranosyl)-2,6-diaminopurine], the EC50 amounted to 0.101 µg/mL (≈ 0.336 µM) in the assay with VZV, 0.05 µg/mL (≈ 0.166 µM) in the assay with HSV-2 (setting [1]), 0.0057 µg/mL (≈ 0.019 µM) in the assay on HSV-1 (setting [2]) and 0.066 µg/mL in the assay on HCMV.
Consider `Nc1nc(O)c2ncn(COC(CO)CO)c2n1` [Control Example 3, ganciclovir, reference compound], for which the EC50 with VZV worked out at 3.1 µg/mL (≈ 12.1 µM); in the assay with HSV-2 (setting [1]), 0.039 µg/mL (≈ 0.153 µM); in the assay with HSV-1 (setting [2]) it was 0.016 µg/mL (≈ 0.0627 µM); with HCMV, 0.21 µg/mL.

Source of the values: patent US6103707A, “9-(2-deoxy-2-fluoro-4-thio-beta-D-arabinofuranosyl)purine derivatives” (Yamasa Corporation, priority 1996, dated 2000).
